Experimental data taken from patent publication US5422352A, “Slimming pharmaceutical composition” (Nycomed Dak A/S, priority 1989, dated 1995).
Where a name gives a salt, the structure may show the parent alone.

Columns and labels:
[1] = 3 ppm (3 mg/kg feed); cited from earlier work
[2] = laboratory methods in healthy volunteers: serum glucose, NEFA, glycerol (Example 2); assay type: in vivo, human; details: oral; for serum glucose (in words): vs placebo
Description: Through the indwelling antecubital cannula, blood was sampled without stasis in iced syringes. The blood samples were then centrifuged at 4° C. and nonesterified fatty acids (NEFA) were immediately extracted from the blood samples and later determined as described in (22). The concentration of glucose in plasma was determined using the glucose oxidase method (23), the concentration of glycerol in plasma was determined as described by Laurell and Tibbling (24), the concentration of lactate in plasma was described using the method described by Noll (25), and the concentration of triglyceride in plasma was determined as described by Giegel (26). Blood samples for the determination of methylxanthine metabolites was collected in tubes containing reduced glutathione and ethylene glycol-bis(β-aminoethyl)-N,N,N',N'-tetraacetic acid (EGTA). Samples were immediately centrifuged and the plasma was stored at -40° C. until the determination of methylxanthines was performed (see Example 4). Immunoreactive insulin, pancreatic glucagon and C-peptide concentrations were measured in the plasma samples using radioimmunoassay kits purchased from Novo, Copenhagen. All plasma aliquots for determination of pancreatic hormones and methylxanthine metabolites were coded and analyzed in a random order to avoid any systematic error due to the order of analysis. The concentrations of sodium and potassium in the plasma samples were determined by flame spectrophotometry.

[3] = laboratory methods: fasting serum glucose, triglycerides, cholesterol in obese patients (Example 5); assay type: in vivo, human
Description: Blood and urine samples for laboratory tests were taken before entry, and after 12 and 24 weeks.
Metabolic factors: In order to evaluate changes in the glucose and lipid metabolism of the patients during the study, triglyceride acid (TGA), cholesterol and fasting glucose were analyzed.
All clinical-chemical analyses apart from TGA and test strips for urine, were carried out at Department of Clinical Chemistry, Hvidovre Hospital, in accordance with their routine methods and assays, including the department's running quality control. The methods and the assays are routine procedures and are well-documented (7,40-48). TGA was analyzed and test strips for urine assessed at the Department of Internal Medicine, Division of Endocrinology, Hvidovre Hospital's own laboratory following the same routine procedures as above (26).
(§1) The mean difference of blood pressure, heart rate and laboratory data from the initial values (week 0) at week 12 and at week 24 was compared to initial values for each treatment group by Students' one sample t-test (SAS). Comparison of the treatment groups at a particular visit was done by one-way analysis of variance (SAS.GLM). The difference from initial values was used in order to prevent chance events influencing the results. Patients with high values, for instance, who dropped out would thus influence the mean value at the next control, without a real difference being present.

[4] = safety evaluation in healthy volunteers: side effects, blood pressure, heart rate (Example 2); assay type: in vivo, human
Description: Arterial blood pressure was measured in the right arm by a sphygmomanometer a.m. Riva-Rocci, and heart rate was determined by palpation of the peripheral heart rate in the ipsilateral radial artery. These measurements were performed after each sampling of blood.
A "Trimline" apparatus manufactured by PyMaH (Copenhagen) was used to measure the arterial blood pressure. A cuff 12-14 cm in width was employed. […] The diastolic blood pressure was determined as the manometer pressure when the Korotkoff sound quality changes from tapping to muffled.
At the end of each study comprising oral administration of the actual test substance, subjective feelings of side-effects were assessed by questioning the experimental subjects.

[5] = 18 weeks, 2+2+1 tablet per day; cited from earlier work
[6] = adverse drug reactions in obese patients, 24 weeks (Example 5); assay type: in vivo, human; details: for Patients complaining of adverse drug reactions / Patients withdrawn due to adverse drug reactions: 24 weeks; for adverse reactions / withdrawal symptoms (in words): human, in vivo
From the text: 14 days after discontinuation of the treatment, a psychiatrist recorded any inconveniences the patient might have had during this period and physical and psychological symptoms were registered.

[7] = blood pressure and heart rate in obese patients, 24 weeks (Example 5); assay type: in vivo, human; details: week 24; for Average heart rate decrease / Average heart rate decrease, % of initial value: negative = increase
Description: Blood pressure was measured with a Trimline Sphygmomanometer (PyMaH) by the investigator every 4 weeks. After at least 10 minutes rest, the measurements were carried out in the right arm of the patient a.m. Riva-Rocci with the patient being positioned in a sitting position. A cuff of 14 to 16 cm width was employed. […] The diastolic blood pressure was determined at the manometer pressure when the Korotkoff sound quality changes from tapping to muffled.
The heart rate was determined by palpation of the peripheral heart rate in the right radial artery.
as §1

[8] = ephedrine 50 mg; ephedrine plus caffeine 50 mg+100 mg; oral, 4 months; cited from earlier work
[9] = test system: resting skeletal muscle; details: in vivo; cited from earlier work
[10] = thermogenic effect: energy expenditure in healthy volunteers by indirect calorimetry (Example 2); assay type: in vivo, human; details: for Mean energy expenditure during 3 hours: oral single dose, not placebo-corrected; for Energy expenditure greater than placebo: mean±SE, minimum figure; for thermogenic effect (in words): human, in vivo
Description: The study was conducted in two parts. The first part was designed as a placebo-controlled, double-blind trial on the effect of 3 different doses of caffeine, 3 different doses of ephedrine and 2 placebo samples. The order of the tests were not entirely randomized, but organized in a sequence that allowed testing for a carry-over effect.
6 healthy volunteers of normal weight (3 of each sex) aged between 20 and 32 were included after informed consent was obtained. The average age of the 6 volunteers was 25 (±1) years, height, 179 (±11) cm; body weight, 70 (±13) kg; percentage of overweight, -1.7 (±8.3) % and body fat, 13 (±3) kg. The numbers in parenthesis are the standard deviation. The percentages of overweight was calculated from the individual body weight (IBW) using the midpoint of the medium frame (MMF) given in the Metropolitan Life Insurance Company tables of desirable weights (1): [formula]
A. Treatment with ephedrine comprising capsules with 10 mg, 20 mg or 40 mg of ephedrine hydrochloride, respectively.
B. Treatment with caffeine comprising capsules with 100 mg, 200 mg or 400 mg of caffeine, respectively. […]
The capsules were administered orally as single doses and swallowed with 300 ml of tap water (20° C.).
All blood samples for determination of substrate, metabolite and hormone concentrations were collected form the antecubital vein. Blood samples were taken at -30, 0, 30, 60, 90, 120, 150 and 180 minutes relative to the capsule intake (time 0). The subjects breathed through a low-resistance Scuba one-way mouthpiece. After about 10 minutes of adaptation, expiratory gas was collected in Douglas bags for 10 minute periods. Gas collection was made after each blood sampling.
Energy expenditure was measured by indirect calorimetry. Expiratory gas was continuously analyzed for the content of oxygen and carbon dioxide with a Godart Rapox Oxygenmeter and a Beckman LB-1 Medical Gas Analyzer. Respiratory steady state was assumed to be present, when the end-expiratory carbon dioxide fraction was constant. Expiratory gas was collected in Douglas bags and analyzed for the content of oxygen and carbon dioxide with Radiometer gas-electrodes connected to an acid-base analyzer (PHM 71, Copenhagen, Denmark), and the volume of expiration gas was measured with a gas meter. […] The standard gasses were analyzed with a Scholander microtechnique with a measuring error on gas fraction being <0.0005%, i.e. the error on measurement of expired gas being within ±0.1-0.2% (19). […] A fixed protein catabolism was assumed, since the error on calculating the energy expenditure by omitting the exact correction from urinary nitrogen was negligible (20). The energy expenditure was calculated taking de novo lipogenesis into account (21).
The responses to a test substance were estimated separately for each subject as the difference between the integrated numerical area of the response curve (by a trapezoidal approach) and the rectangular area determined by the basal values. To estimate the predictive, theoretical effect of combinations of ephedrine and caffeine, the single dose responses were added after subtracting the average placebo response. This calculation was performed separately for each subject before statistical analysis. A two-way analysis of variance for randomized blocks was performed (28) to test differences between experimental periods within the same experiment and to test differences between the responses to different stimuli (test substances). Post-hoc testing was applied to compare two means (28).

[11] = weight reducing effect in obese patients, 24 weeks, double blind (Example 5); assay type: in vivo, human
Description: The study was designed as a double blind, randomised, parallel study with 4 treatment groups in a 2×2 factorial design.
All patients were treated with the trial medication and prescribed a 4.2 MJ/day diet for 24 weeks.
B. Ephedrine group: Ephedrine tablets containing 20 mg ephedrine hydrochloride.
C. Caffeine group: Caffeine tablets containing 200 mg caffeine.
The patients were prescribed 1 tablet 3 times daily one hour before meals together with a 4.2 MJ/day diet consisting of NUPO® protein nutrition powder (33) (1.6 MJ/day) and free additional choice of food (2.6 MJ/day) for 24 weeks.
The patients were weighed on a decimal scale by dietitians at each visit. A Seca electronic scale (model 707) was used. The weighing limit was 200 kg, with 100 g graduations. The scale was calibrated every week.
The statistical analysis of weight loss was based on the logarithm of the initial body weight minus logarithm of the body weight at the actual visit.
As the data was logarithmically transformed as expressed above, a negative value corresponds to a supra-additive effect. Nil corresponds to additive effect and a positive value corresponds to a sub-additive effect.

[12] = week 12, difference from initial
[13] = week 24, difference from initial

| Compound | serum nonesterified fatty acids and glycerol (in words) [2] | serum glucose (in words) [2] | Mean difference in fasting serum glucose [3, 12] [mmol/L] | Mean difference in serum triglycerides [3, 12] [mmol/L] | Mean difference in fasting serum cholesterol [3, 13] [mmol/L] | Mean difference in fasting serum glucose [3, 13] [mmol/L] | Mean difference in serum triglycerides [3, 13] [mmol/L] | Patients complaining of adverse drug reactions [6] [patients] | Patients withdrawn due to adverse drug reactions [6] | adverse reactions / withdrawal symptoms (in words) [6] | Average diastolic blood pressure decrease [7] [mmHg] | Average diastolic blood pressure decrease, % of initial value [7] [%] | Average systolic blood pressure decrease [7] [mmHg] | Average systolic blood pressure decrease, % of initial value [7] [%] | Average heart rate decrease [7] [BPM] | Average heart rate decrease, % of initial value [7] [%] | thermogenic effect (in words) [10] | further results |
| --- | --- | --- | --- | --- | --- | --- | --- | --- | --- | --- | --- | --- | --- | --- | --- | --- | --- | --- |
| CC(C)(C)NCC(O)c1ccc(O)c(CO)c1 (stereo not shown) [salbutamol] |  |  |  |  |  |  |  |  |  |  |  |  |  |  |  |  |  | fat and protein accretion (in words) [1]: decreases fat accretion and increases protein accretion in growing pigs |
| CN[C@@H](C)[C@H](O)c1ccccc1 [Ephedrine, ephedrine hydrochloride] | increased the concentrations of NEFA and glycerol in the serum | hyperglycemic effect | -0.55 | -0.14 | -0.18 | -0.46 | -0.66 | 20 | 1 | 34 patient complained of hunger, especially those who had been treated with ephedrine | 6.9 | 8.6 | 8.7 | 7.0 | -3.1 | -4.3 | possess thermogenic activity | systolic blood pressure and heart rate (in words) ([4]; 40 mg ephedrine hydrochloride): excessive increase in systolic blood pressure and heart rate; average weight loss [5]: 7.9 kg; weight loss (in words) [8]: no significant difference in weight loss; contribution of resting skeletal muscle to whole body thermogenesis induced [9]: at least 50%; Energy expenditure/(placebo value) ([10]; 10 mg ephedrine hydrochloride): 3.5; Mean energy expenditure during 3 hours ([10]; 10 mg ephedrine hydrochloride): 22.2 kcal/3 h; Energy expenditure greater than placebo ([10]; 10 mg ephedrine hydrochloride): 16.0±10.9 kcal/3 h; Energy expenditure/(placebo value) ([10]; 20 mg ephedrine hydrochloride): 2.0; Mean energy expenditure during 3 hours ([10]; 20 mg ephedrine hydrochloride): 12.5 kcal/3 h; Energy expenditure greater than placebo ([10]; 20 mg ephedrine hydrochloride): 6.3±5.3 kcal/3 h; Energy expenditure/(placebo value) ([10]; 40 mg ephedrine hydrochloride): 3.0; Mean energy expenditure during 3 hours ([10]; 40 mg ephedrine hydrochloride): 18.3 kcal/3 h; Energy expenditure greater than placebo ([10]; 40 mg ephedrine hydrochloride): 12.1±4.9 kcal/3 h |
| Cn1c(=O)c2c(ncn2C)n(C)c1=O [Caffeine, caffeine] | increased the concentrations of NEFA and glycerol in the serum | hyperglycemic effect | -0.18 | -0.11 | -0.28 | -0.42 | -0.32 | 16 | 2 | Headache was reported by 27 patients, especially patients from the caffeine group | 8.9 | 11.0 | 9.3 | 7.3 | 5.7 | 7.3 | a significant relation between caffeine dose and thermogenic response (energy expenditure) | side effects (in words) ([4]; 400 mg caffeine): The incidence of side effects after administration of the active compounds and placebo, respectively, was not significant, except for caffeine 400 mg (p<0.01); Average weight loss of the whole group ([11]; 24 weeks): 11.7 kg; Weight loss of one strongly deviant patient ([11]; 24 weeks, excluded from analysis): 42.6 kg; Relative body weight ([11]; week 4, 1 tablet 3 times daily, 4.2 MJ/day diet): 95.5%; Relative body weight ([11]; week 8): 93.0%; Relative body weight ([11]; week 12): 90.4%; Relative body weight ([11]; week 16): 89.3%; Relative body weight ([11]; week 20): 88.0%; Relative body weight ([11]; week 24): 87.6%; Energy expenditure/(placebo value) ([10]; 100 mg caffeine): 2.5; Mean energy expenditure during 3 hours ([10]; 100 mg caffeine): 15.4 kcal/3 h; Energy expenditure greater than placebo ([10]; 100 mg caffeine): 9.2±5.7 kcal/3 h; Energy expenditure/(placebo value) ([10]; 200 mg caffeine): 2.2; Mean energy expenditure during 3 hours ([10]; 200 mg caffeine): 13.4 kcal/3 h; Energy expenditure greater than placebo ([10]; 200 mg caffeine): 7.2±6.0 kcal/3 h; Energy expenditure/(placebo value) ([10]; 400 mg caffeine): 6.2; Mean energy expenditure during 3 hours ([10]; 400 mg caffeine): 38.6 kcal/3 h; Energy expenditure greater than placebo ([10]; 400 mg caffeine): 32.4±8.2 kcal/3 h; thermogenic effect (in words) ([10]; listed as caffeine): possess thermogenic activity |
